pIC50, pKi: −log10 of the molar value. Like-named read-outs stand apart in the source and are kept apart here.
Assays:
HCC15 cells = test: Cell viability of KIF18a-sensitive cell lines, HCC15 (Cell Titre-Glo, 7 days); assay type: cell-based; details: read-out: HCC-15 IC50
Experimental: Cell Viability of KIF18a-Sensitive Cell Lines
Cell lines were seeded as follows 24 hours before compound treatment: HCC15 (Korean Cell Line Bank) 600 cell/well, 95 μL of RPMI-1640 media supplemented with 100 units/mL penicillin, 100 units/mL streptomycin and 10% FBS; NIH:OVCAR-3 (ATCC), 1000 cell/well, 95 μL of RPMI-1640 media supplemented with 100 units/mL penicillin, 100 units/mL streptomycin, 0.01 mg/mL bovine insulin, and 20% FBS; JIMT-1 (Addexbio) 1000 cell/well, 95 μL of DMEM media supplemented with 100 units/mL penicillin, 100 units/mL streptomycin, and 10% FBS.
Test compounds were added to cells in a 20× dilution scheme by adding 5 μL of serially diluted compound to the plate, and the treated cells were incubated for an additional 7 days in a 37° C., 5% CO2 incubator. DMSO was used as the negative control (0% effect), and wells omitting cells were used as the positive control (100% effect). The cells were incubated for seven days, and cell viability determined via the Promega Cell Titre-Glo® Assay kit. Luminescence units were converted to ATP concentrations via an ATP standard curve (10 point, 2-fold dilution from 5 uM). % Inhibition was calculated for each well as: ([max−min]−[test−min])/[max−min]. IC50 values were calculated from concentration vs. % Inhibition data via a four-parameter variable slope model.

hKIF18A (1-374) = hKIF18A (1-374) (Homo sapiens (Human), UniProt Q8NI77); test: Inhibition of KIF18A microtubule-dependent ATPase activity (ADP-Glo)
[1] = target: KIF18a-Microtubule Complex (Homo sapiens (Human), UniProt Q8NI77); test: Binding kinetics to KIF18a-microtubule complex (global progress curve analysis); details: for koff (off-rate from binding kinetics assay) / kon (on-rate from binding kinetics assay): global progress curve analysis; for pKi: read-out: KI (determined from binding kinetic assay koff/kon), koff/kon; for koff: read-out: koff (off-rate from binding kinetics assay)
Experimental: Binding Kinetics to KIF18a-Microtubule Complex
Compound binding kinetics parameters (kon and koff) were determined by the method of global progress curve analysis (GPCA). […] ADP product levels were determined by the Promega® ADP-Glo assay. The time/dose-dependent progress curves were then globally fit to a Michaelis-Menten kinetics model with 1-step slow binding inhibition to derive both on-rate kon and off-rate koff values (Zhang, R., Wong, K. (2017): “High performance enzyme kinetics of turnover, activation and inhibition for translational drug discovery”, Expert Opinion on Drug Discovery, 2017 January; 12(1):17-37. doi: 10.1080/17460441.2017.1245721).

[2] = HCC15, 168 h, HCC-15 cells, 7 days, Cell Titre-Glo
[3] = KIF18A microtubule-dependent ATPase activity, biochemical assay
[4] = HCC-15 cells, 7 days, Cell Titre-Glo

Sequence of KIF18a-Microtubule Complex (Q8NI77 whole entry, looked up): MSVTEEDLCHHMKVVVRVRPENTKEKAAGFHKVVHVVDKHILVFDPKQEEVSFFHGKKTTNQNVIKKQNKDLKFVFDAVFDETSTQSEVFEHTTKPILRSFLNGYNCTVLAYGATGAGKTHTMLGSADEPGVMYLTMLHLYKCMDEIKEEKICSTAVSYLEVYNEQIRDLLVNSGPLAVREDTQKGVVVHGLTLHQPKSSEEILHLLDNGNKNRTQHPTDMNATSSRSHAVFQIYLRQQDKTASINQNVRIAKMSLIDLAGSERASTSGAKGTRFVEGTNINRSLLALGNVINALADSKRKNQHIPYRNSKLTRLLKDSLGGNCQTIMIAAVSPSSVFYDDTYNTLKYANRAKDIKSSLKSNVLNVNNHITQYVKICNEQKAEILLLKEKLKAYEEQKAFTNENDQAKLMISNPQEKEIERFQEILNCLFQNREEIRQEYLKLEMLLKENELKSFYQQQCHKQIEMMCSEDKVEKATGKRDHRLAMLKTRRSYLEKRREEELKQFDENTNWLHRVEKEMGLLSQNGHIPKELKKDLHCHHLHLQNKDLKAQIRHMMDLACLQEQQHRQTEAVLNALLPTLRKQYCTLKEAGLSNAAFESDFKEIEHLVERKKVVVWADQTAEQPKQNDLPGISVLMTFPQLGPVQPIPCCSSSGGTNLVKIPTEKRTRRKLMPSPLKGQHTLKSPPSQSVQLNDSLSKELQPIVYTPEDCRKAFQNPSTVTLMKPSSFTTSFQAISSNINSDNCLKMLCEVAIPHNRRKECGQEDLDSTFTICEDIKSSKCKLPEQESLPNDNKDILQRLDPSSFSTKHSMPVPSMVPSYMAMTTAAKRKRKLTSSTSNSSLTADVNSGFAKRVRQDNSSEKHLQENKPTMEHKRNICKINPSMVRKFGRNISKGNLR
Sequence of KIF18a-Microtubule Complex (Q2XVP4 whole entry partner, looked up): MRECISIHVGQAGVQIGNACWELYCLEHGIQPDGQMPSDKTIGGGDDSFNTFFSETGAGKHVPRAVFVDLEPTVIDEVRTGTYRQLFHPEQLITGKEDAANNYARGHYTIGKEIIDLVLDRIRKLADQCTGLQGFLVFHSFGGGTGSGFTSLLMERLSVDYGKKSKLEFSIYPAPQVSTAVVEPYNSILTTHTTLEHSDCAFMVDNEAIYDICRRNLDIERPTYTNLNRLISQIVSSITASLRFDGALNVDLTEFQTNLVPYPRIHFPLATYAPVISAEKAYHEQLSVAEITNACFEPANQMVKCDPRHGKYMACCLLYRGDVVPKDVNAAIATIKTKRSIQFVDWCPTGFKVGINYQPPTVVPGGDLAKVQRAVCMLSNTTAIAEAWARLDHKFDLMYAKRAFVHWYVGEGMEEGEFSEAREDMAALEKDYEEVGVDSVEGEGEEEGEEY
Sequence of KIF18a-Microtubule Complex (P02554 whole entry partner, looked up): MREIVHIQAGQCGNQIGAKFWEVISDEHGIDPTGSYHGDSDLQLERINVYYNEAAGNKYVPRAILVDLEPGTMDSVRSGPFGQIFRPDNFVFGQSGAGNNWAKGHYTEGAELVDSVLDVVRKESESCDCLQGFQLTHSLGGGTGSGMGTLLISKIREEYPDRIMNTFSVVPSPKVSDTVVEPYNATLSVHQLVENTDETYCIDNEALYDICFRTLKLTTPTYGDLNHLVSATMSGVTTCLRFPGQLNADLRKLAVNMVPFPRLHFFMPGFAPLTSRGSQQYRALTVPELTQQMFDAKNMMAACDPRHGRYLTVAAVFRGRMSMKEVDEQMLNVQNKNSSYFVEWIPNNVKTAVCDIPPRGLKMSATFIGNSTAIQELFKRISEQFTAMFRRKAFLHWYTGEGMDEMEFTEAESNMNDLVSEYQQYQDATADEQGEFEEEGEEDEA
Sequence of hKIF18A (1-374) (Q8NI77 whole entry, looked up): as the sequence (Q8NI77 whole entry, looked up) above
Sequence of hKIF18A (1-374) (Q2XVP4 whole entry partner, looked up): as the sequence (Q2XVP4 whole entry partner, looked up) above
Sequence of hKIF18A (1-374) (P02554 whole entry partner, looked up): as the sequence (P02554 whole entry partner, looked up) above

| Structure (SMILES) | pIC50 (HCC15 cells; [2]) | pIC50 (hKIF18A (1-374); [3]) | further results |
| --- | --- | --- | --- |
| CS(=O)(=O)Nc1ccc2c(c1)C1(CCC3(CC3)CC1)CN2C(=O)c1cccc(S(=O)(=O)NC2CCC2)c1 [Compound 168, N-cyclobutyl-3-(5″- (methylsulfonamido)dispiro[cyclopropane-1,1′-cyclohexane-4′,3″-indoline]-1″-carbonyl)benzenesulfonamide] | 7.55 | 8.26 |  |
| CS(=O)(=O)Nc1ccc2c(c1)C1(CCC3(CC3)CC1)CN2C(=O)c1cccc(S(=O)(=O)N2CC3(CCO3)C2)c1 [Compound 153, N-(1″-(3-((1-oxa-6-azaspiro[3.3]heptan-6-yl)sulfonyl)benzoyl)dispiro[cyclopropane-1,1′-cyclohexane-4′,3″-indolin]-5″- yl)methanesulfonamide] | 7.36 | 7.74 |  |
| CC1CCC2(CC1)CN(C(=O)c1cccc(S(=O)(=O)N3CCC(F)(F)CC3)c1)c1ccc(NS(C)(=O)=O)cc12 (stereo not shown) [Compound 24, N-(1′-(3-((4,4-difluoropiperidin-1-yl)sulfonyl)benzoyl)-4-methylspiro[cyclohexane-1,3′-indolin]-5′-yl)methanesulfonamide] | 7.64 |  | pIC50 (hKIF18A (1-374)): 8.00 |
| CC(C)(C)NS(=O)(=O)c1cccc(C(=O)N2C[C@]3(CC[C@H](C)CC3)c3cc(NS(C)(=O)=O)ccc32)c1 [Compound 140a] |  |  | koff (off-rate from binding kinetics assay) [1]: 6.67e-06 s⁻¹; kon (on-rate from binding kinetics assay) [1]: 13100 M⁻¹ s⁻¹; disc. t1/2 (dissociation half-life ln(2)/koff) [1]: 29 h; pKi [1]: 9.30; pIC50 (HCC15 cells; [4]): 8.00 |
| O=C(c1cccc(S(=O)(=O)N2CCC(F)(F)CC2)c1)N1CC2(CCC3(CC3)CC2)c2ccccc21 [Compound 4, (3-((4,4-difluoropiperidin-1-yl)sulfonyl)phenyl)(dispiro[cyclopropane-1,1′-cyclohexane-4′,3″-indolin]-1″- yl)methanone] | 5.68 | 6.44 |  |
| CS(=O)(=O)Nc1ccc2c(c1)C1(CCC3(CC3)CC1)CN2C(=O)c1cccc(S(=O)(=O)N2CCC(F)(F)CC2)c1 [Compound 28, N-(1″-(3-((4,4-difluoropiperidin-1-yl)sulfonyl)benzoyl)dispiro[cyclopropane-1,1′-cyclohexane-4′,3″-indolin]-5″-yl)methanesulfonamide] | 7.62 | 8.00 |  |
| CC(C)(C)NS(=O)(=O)c1cccc(C(=O)N2CC3(CCC4(CC4)CC3)c3cc(NS(=O)(=O)CCO)ccc32)c1 [Compound 148, N-(tert-butyl)-3-(5″-((2-hydroxyethyl)sulfonamido)dispiro [cyclopropane-1,1′-cyclohexane-4′,3″- indoline]-1″- carbonyl)benzenesulfonamide] | 7.44 | 7.92 | kon (on-rate from binding kinetics assay) [1]: 13600 M⁻¹ s⁻¹; disc. t1/2 (dissociation half-life ln(2)/koff) [1]: 48 h; pKi [1]: 9.54; koff [1]: 3.89e-06 s⁻¹ |
| O=C(Nc1cccc(C(=O)N2CC3(CCCC3)c3c(F)cccc32)c1)NC1CC1 [Compound 2′, 1-cyclopropyl-3-(3-(4′-fluorospiro[cyclopentane-1,3′-indolin]-1′-carbonyl)phenyl)urea] | 5.59 | 6.04 |  |
| CS(=O)(=O)Nc1ccc2c(c1)C1(CCC3(CC3)CC1)CN2C(=O)c1cccc(S(=O)(=O)NC2CC=CC2)c1 [Compound 172, N-(cyclopent-3-en-1-yl)-3-(5″- (methylsulfonamido)dispiro[cyclopropane-1,1′-cyclohexane-4′,3″-indoline]-1″-carbonyl)benzenesulfonamide] | 7.49 | 8.26 |  |
| CC(C)(C)NS(=O)(=O)c1cccc(C(=O)N2CC3(CCCCC3)c3cc(NS(C)(=O)=O)ccc32)c1 [Compound 26, N-(tert-butyl)-3-(5′-(methylsulfonamido)spiro[cyclohexane-1,3′-indoline]-1′-carbonyl)benzenesulfonamide] | 7.16 | 7.17 |  |
| CS(=O)(=O)Nc1ccc2c(c1)C1(CCC3(CC3)CC1)CN2C(=O)c1cccc(S(=O)(=O)N2CC3(CCC3)C2)c1 [Compound 151, N-(1″-(3-((2-azaspiro[3.3]heptan-2-yl)sulfonyl)benzoyl)dispiro[cyclopropane-1,1′-cyclohexane-4′,3″-indolin]-5″- yl)methanesulfonamide] | 7.89 | 8.17 | kon (on-rate from binding kinetics assay) [1]: 26700 M⁻¹ s⁻¹; disc. t1/2 (dissociation half-life ln(2)/koff) [1]: 61 h; pKi [1]: 9.92; koff [1]: 3.06e-06 s⁻¹ |
| CS(=O)(=O)Nc1ccc2c(c1)C1(CCCC1)CN2C(=O)c1cccc(S(=O)(=O)N2CCC(F)(F)CC2)c1 [Compound 18, N-(1′-(3-((4,4-difluoropiperidin-1-yl)sulfonyl)benzoyl)spiro[cyclopentane-1,3′-indolin]-5′-yl)methanesulfonamide] |  | 7.10 | pIC50 (HCC15 cells; HCC15, 168 h): 6.80 |
| CC1(NS(=O)(=O)c2cccc(C(=O)N3CC4(CCC5(CC5)CC4)c4cc(NS(C)(=O)=O)ccc43)c2)CCC1 [Compound 182, N-(1-methylcyclobutyl)-3-(5″- (methylsulfonamido)dispiro[cyclopropane-1,1′-cyclohexane-4′,3″-indoline]-1″-carbonyl)benzenesulfonamide] | 7.82 | 8.14 | kon (on-rate from binding kinetics assay) [1]: 30600 M⁻¹ s⁻¹; disc. t1/2 (dissociation half-life ln(2)/koff) [1]: 24 h; pKi [1]: 9.59; koff [1]: 8.06e-06 s⁻¹ |
| CS(=O)(=O)Nc1ccc2c(c1)C1(CCCCC1)CN2C(=O)c1cccc(S(=O)(=O)C2CCCCC2)c1 [Compound 70, N-(1′-(3-(cyclohexylsulfonyl)benzoyl)spiro[cyclohexane-1,3′-indolin]-5′-yl)methanesulfonamide] | 6.23 | 7.52 | kon (on-rate from binding kinetics assay) [1]: 10000 M⁻¹ s⁻¹; disc. t1/2 (dissociation half-life ln(2)/koff) [1]: 3.0 h; pKi [1]: 8.19; koff [1]: 6.39e-05 s⁻¹ |
| CC(C)(C)NS(=O)(=O)c1cccc(C(=O)N2CC3(CCC4(CC4)CC3)c3ccccc32)c1 [Compound 10, N-(tert-butyl)-3-(dispiro[cyclopropane-1,1′-cyclohexane-4′,3″-indoline]-1″- carbonyl)benzenesulfonamide] | 5.66 | 6.57 |  |
| CC1CCC2(CC1)CN(C(=O)c1cccc(S(=O)(=O)NC(C)(C)C)c1)c1ccc(NS(C)(=O)=O)cc12 (stereo not shown) [Compound 140, N-(tert-butyl)-3-(4-methyl-5′-(methylsulfonamido)spiro[cyclohexane-1,3′-indoline]-1′-carbonyl)benzenesulfonamide] | 7.42 | 7.89 |  |
| CS(=O)(=O)Nc1ccc2c(c1)C1(CCC3(CC3)CC1)CN2C(=O)c1cccc(S(=O)(=O)N2CCCC2)c1 [Compound 21, N-(1″-(3-(pyrrolidin-1-ylsulfonyl)benzoyl)dispiro[cyclopropane-1,1′-cyclohexane-4′,3″-indolin]-5″- yl)methanesulfonamide] | 7.26 | 7.72 |  |
| O=C(c1cccc(S(=O)(=O)N2CCC(F)(F)CC2)c1)N1CC2(CCC3(CC3)CC2)c2cc(NS(=O)(=O)CCO)ccc21 [Compound 29, N-(1″-(3-((4,4-difluoropiperidin-1-yl)sulfonyl)benzoyl)dispiro[cyclopropane-1,1′-cyclohexane-4′,3″-indolin]-5″-yl)-2-hydroxyethane-1-sulfonamide] | 6.48 | 7.66 |  |
| CC(C)(C)NS(=O)(=O)c1cccc(C(=O)N2C[C@]3(CC[C@@H](C)CC3)c3cc(NS(C)(=O)=O)ccc32)c1 [Compound 140b] |  |  | koff (off-rate from binding kinetics assay) [1]: 2.22e-05 s⁻¹; kon (on-rate from binding kinetics assay) [1]: 16100 M⁻¹ s⁻¹; disc. t1/2 (dissociation half-life ln(2)/koff) [1]: 8.7 h; pKi [1]: 8.85; pIC50 (HCC15 cells; [4]): 7.35 |
| CS(=O)(=O)Nc1ccc2c(c1)C1(CCC3(CC3)CC1)CN2C(=O)c1cccc(S(=O)(=O)N2CCCCC2)c1 [Compound 20, N-(1″-(3-(piperidin-1-ylsulfonyl)benzoyl)dispiro[cyclopropane-1,1′-cyclohexane-4′,3″-indolin]-5″- yl)methanesulfonamide] | 7.60 | 7.89 |  |
| CS(=O)(=O)Nc1ccc2c(c1)C1(CCCCC1)CN2C(=O)c1cccc([S+]([O-])C2CCCC2)c1 (stereo not shown) [Compound 43, N-(1′-(3-(cyclopentylsulfinyl)benzoyl)spiro [cyclohexane-1,3′-indolin]-5′-yl)methanesulfonamide] | 6.31 | 7.05 |  |

Reference: US12084420B2, “Indoline compounds for inhibiting KIF18A” (Volastra Therapeutics, Inc., priority 2021, dated 2024)
